Where two headings read alike, the source gives them in different places.
Key:
[1] = target: T1, NK1 receptors (Cavia porcellus, UniProt P30547); assay: NK1 Receptor Binding Test; parameters: species or system guinea pig
T1 construct: A crude membrane fraction was prepared from the lung of male Hartley guinea pigs; from tissue; host or cells: guinea pig lung (crude membrane fraction)
Experimental: (a) Preparation of Crude Lung Membrane Fraction
A crude membrane fraction was prepared from the lung of male Hartley guinea pigs. The guinea pigs were bled from the cava abdominalis under chloroform anaesthesia and the pulmonary airway tissue was extracted immediately.
The extracted lung was perfused with a buffer (1) (50 mM Tris-HCl, pH 7.4), thinly cut in the buffer, and then homogenised in a buffer (2) [buffer (1) containing 120 mM sodium chloride and 5 mM potassium chloride] using a Polytron homogenizer. The tissue mass was removed from the homogenate by filtration with a nylon mesh (50 μm) and the supernatant was centrifuged (30,000×g, 30 minutes, 4° C.). The resultant pellet was resuspended in an ice-cooled buffer (3) [buffer (1) containing 10 mM EDTA and 300 mM potassium chloride], allowed to stand at 4° C. for 60 minutes and then washed centrifugally twice (30,000×g, 15 minutes, 4° C.).
(§1) The crude membrane fraction was preserved at −80° C. before use.
(§2) (b) Receptor Binding Test
(§3) To a mixed solution (250 μl) of the test drug and [^3H]-substance P (final concentration: 1 nM) (50 mM Tris-HCl, pH 7.4; 6 mM manganese chloride, 800 μg/ml BSA, 8 μg/ml chymostatin, 8 μg/ml leupeptin, 80 μg/ml bacitracin, 20 μg/ml phosphoramidon) was added a crude lung membrane fraction solution (250 μl), followed by incubation at room temperature for 30 minutes.
At the end of this time, a lung membrane ingredient was recovered on a GF/B glass fiber filter (manufactured by Whatman Co.) using an automatic filtering device (manufactured by Brandel Co.).
The glass filter was used after being pre-treated with a 0.1% polyethyleneimine solution for about 4 hours so as to inhibit non-specific binding as little as possible. The membrane ingredient-recovered filter was transferred to a mini-plastic vial containing a pico flow (4 ml) and the radioactivity was measured using a liquid scintillation counter (LSC3000, manufactured by Beckman Co.).

[2] = target: T2, NK2 receptors (Cavia porcellus, UniProt Q64077); assay: NK2 Receptor Binding Test; parameters: species or system guinea pig
T2 construct: A crude membrane fraction was prepared from the ileum of male Hartley guinea pigs; from tissue; host or cells: guinea pig ileum (crude membrane fraction)
T2 sequence (Q64077 1-402): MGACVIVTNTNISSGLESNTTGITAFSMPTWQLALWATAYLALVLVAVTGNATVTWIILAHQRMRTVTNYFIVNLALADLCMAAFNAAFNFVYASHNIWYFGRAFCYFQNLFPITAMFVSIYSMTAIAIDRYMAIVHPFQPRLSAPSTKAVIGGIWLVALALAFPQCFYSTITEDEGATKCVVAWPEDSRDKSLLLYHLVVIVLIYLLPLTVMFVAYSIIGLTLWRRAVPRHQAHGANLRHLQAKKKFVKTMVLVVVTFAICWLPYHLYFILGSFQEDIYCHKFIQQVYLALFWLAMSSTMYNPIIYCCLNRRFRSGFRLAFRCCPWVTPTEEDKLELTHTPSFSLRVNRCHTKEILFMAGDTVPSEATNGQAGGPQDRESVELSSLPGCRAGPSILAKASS
Experimental: (a) Preparation of Crude Ileum Membrane Fraction
A crude membrane fraction was prepared from the ileum of male Hartley guinea pigs. The guinea pigs were bled from the cava abdominalis under chloroform anaesthesia and the ileum was extracted immediately.
After the contents, secreta and epithelium of the lumen had been scraped off using a glass slide, the extracted ileum was thinly cut in a buffer (1) (50 mM Tris-HCl, pH 7.4) and then homogenised in a buffer (2) [buffer (1) containing 120 mM sodium chloride and 5 mM potassium chloride] using a Polytron homogenizer.
The tissue mass was removed from the homogenate by filtration with a nylon mesh (50 μm) and the supernatant was centrifuged (30,000×g, 30 minutes, 4° C.). The resultant pellet was resuspended in an ice-cooled buffer (3) [buffer (1) containing 10 mM EDTA and 30 mM potassium chloride], allowed to stand at 4° C. for 60 minutes and then washed centrifugally twice (30,000×g, 15 minutes, 4° C.).
as §1, §2
as §3, with “and [^3H]-SR-48968 (manufactured by Amasham Co., final” for “and [^3H]-substance P (final”, “7.4; 4.6” for “7.4; 6”, “[…]” for “20 μg/ml”, “crude ileum” for “crude lung”
At the end of this time, a membrane ingredient was recovered on a GF/B glass fiber filter (manufactured by Whatman Co.) using an automatic filtering device (manufactured by Brandel Co.). The glass filter was used after pre-treatment with a 0.1% polyethyleneimine solution for about 4 hours so as to inhibit non-specific binding as little as possible.
The membrane ingredient-recovered filter was transferred to a mini-plastic vial containing a pico flow (4 ml) and the radioactivity was measured using a liquid scintillation counter (LSC3000, manufactured by Beckman Co.).

[3] = test system: increased vascular permeability induced by substance P (SP), an NK1 receptor agonist; assay: Inhibitory Effect on SP-Induced Increased Vascular Permeability; format: in vivo, guinea pig; settings: i.v., male Hartley guinea pigs, pigment (Evans blue) leakage into primary bronchus 15 min after SP i.v.
Experimental: The inhibitory effect on increased vascular permeability induced by substance P (SP), an NK1 receptor agonist, was assessed based on the amount of pigment leakage as an index using guinea pigs (body weight: approx. 400 g, male Hartley guinea pigs). Immediately after administering pigment (Evans blue: 20 mg/kg, i.v.) and the test drug in that order into the femoral vein of the guinea pigs under pentobarbital anaesthesia (25 mg/kg, i.p.), increased vascular permeability was induced by administration of SP ([…], i.v.). Fifteen minutes later, the guinea pigs were sacrificed by chloroform anaesthesia and the amount of pigment that leaked into the primary bronchus was measured according to the method of Harada (J. Pharm. Pharmacol., 23, 218, 1971). Inhibitory effect was determined based on the amount of pigment leakage found in guinea pigs not treated with the test drug, and expressed as the percent of inhibition (%) and the dose level that caused inhibition of 50% (ID50).

[4] = test system: bronchoconstriction induced with [Nle^10]-NKA[4-10], an NK2 receptor agonist; assay: Inhibitory Effect on NKA-Induced Bronchoconstriction; format: in vivo, guinea pig; settings: i.v., male Hartley guinea pigs, airway pressure, test drug 5 min before [Nle^10]-NKA[4-10] i.v.
Experimental: The inhibitory effect on bronchoconstriction induced with [Nle^10]-NKA[4-10], an NK2 receptor agonist having higher specificity than neurokinin A (NKA), was assessed based on airway pressure as an index according to the modified method of Konzett-Rössler [Naunyn-Schmiedebergs Arch.Exp.Pathol.Pharmakol., 195, 71, (1940)] using guinea pigs (body weight: approximately 500 g, male Hartley guinea pigs).
After canulating the trachea of the guinea pigs under pentobarbital anaesthesia (30 mg/kg, s.c.) and treatment with gallamine (20 mg/kg, i.v.), the animals were ventilated artificially with a constant volume respiration pump (UgoBasile, 7025) at a frequency of 60 per minute and a tidal volume of 8 ml/kg. Airway pressure during artificial respiration was amplified by means of a pressure transducer (Nihon Koden, TP-200T) installed in a branch of the trachea cannula, detected (Nihon Koden, AP-610G), and recorded with a recorder (Nihon Koden, WT-685G). Following pre-treatment with atropine (1 mg/kg, i.v.) and propranolol (1 mg/kg, i.v.), the test drug was administered intravenously. Five minutes later, bronchoconstriction was induced with [Nle^10]-NKA[4-10] at […], i.v., and then airway pressure was measured for 10 minutes. The inhibitory effect was determined based on the intensity of bronchoconstriction of guinea pigs not treated with the test drug, and expressed as the percent of inhibition (%) and the dose level that caused inhibition of 50% (ID50).

[5] = [3H]-substance P 1 nM, crude lung membrane fraction of male Hartley guinea pigs, read-out: IC50 (converted)
[6] = [3H]-SR-48968 1 nM, crude ileum membrane fraction of male Hartley guinea pigs, read-out: IC50 (converted)

T1 sequence (P30547 whole entry): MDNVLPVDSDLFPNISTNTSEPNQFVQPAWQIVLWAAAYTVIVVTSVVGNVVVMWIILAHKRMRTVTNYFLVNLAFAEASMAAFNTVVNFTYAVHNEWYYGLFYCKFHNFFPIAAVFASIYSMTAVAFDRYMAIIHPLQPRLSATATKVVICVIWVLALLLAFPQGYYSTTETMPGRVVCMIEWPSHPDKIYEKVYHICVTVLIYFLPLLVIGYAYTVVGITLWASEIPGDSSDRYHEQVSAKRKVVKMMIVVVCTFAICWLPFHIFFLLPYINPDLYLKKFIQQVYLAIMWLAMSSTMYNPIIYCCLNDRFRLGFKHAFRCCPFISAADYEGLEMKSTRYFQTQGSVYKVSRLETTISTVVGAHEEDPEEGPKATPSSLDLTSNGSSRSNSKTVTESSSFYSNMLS

| Compound | IC50 [1, 5] | IC50 [2, 6] | ID50 [3] | ID50 [4] | activity in NK2 binding test (in words) ([2]; comment on Table 5) | IC50 [1] | IC50 [2] |
| --- | --- | --- | --- | --- | --- | --- | --- |
| Cc1cc(C)cc(C(=O)N(C)C[C@@H](CCN2CCC3(CC2)CN(S(C)(=O)=O)c2ccccc23)c2ccc(Cl)c(Cl)c2)c1 [Compound A] | 60.4 nM | 28.6 nM | 5.8 mg/kg | >10 mg/kg | – | – | – |
| COc1cc(C(=O)N2CCOC(CCN3CCC4(CC3)c3ccccc3C[S+]4[O-])(c3ccc(Cl)c(Cl)c3)C2)cc(OC)c1OC [Example 76, 1-{2-[(2R)-(3,4-Dichlorophenyl)-4-(3,4,5-trimethoxybenzoyl)morpholin-2-yl]ethyl}spiro[benzo[c]thiophene-1(3H),4′-piperidine]-(2S)-oxide] | – | – | 0.047 mg/kg | 0.047 mg/kg | – | – | – |
| COc1cc(C(=O)N2CO[C@](CCN3CCC4(CC3)c3ccccc3C[S@+]4[O-])(c3ccc(Cl)c(Cl)c3)C2)cc(OC)c1OC [Example 75, 1-{2-[(5R)-(3,4-Dichlorophenyl)-3-(3,4,5-trimethoxybenzoyl)oxazolidine-5-yl]ethyl}spiro[benzo[c]thiophene-1(3H),4′-piperidine]-(2S)-oxide] | 8.94 nM | 1.29 nM | 0.025 mg/kg | 0.074 mg/kg | – | – | – |
| COc1cc(C(=O)N2CC[C@](CCN3CCC(C(N)=O)(c4ccccc4)CC3)(c3ccc(Cl)c(Cl)c3)C2)cc(OC)c1OC [Compound C] | 10.1 nM | 48.4 nM | 0.019 mg/kg | 1.7 mg/kg | very weak activity | – | – |
| CN(C[C@@H](CCN1CCC2(CCc3ccccc32)CC1)c1ccc(Cl)c(Cl)c1)C(=O)c1ccccc1 [Compound B] | – | – | >10 mg/kg | 0.37 mg/kg | – | > 1920 nM | 4.22 nM |

— patent publication US6448247B1, “Method for treating an inflammatory disease” (Sankyo Company, Limited, priority 1995, dated 2002)
